# Read-outs that look alike come from different tables or passages of the source.
# Assays:
# Assay in all cases: SelectScreen Kinase Profiling, single point inhibition and IC50 for off-target kinases
# Type in all cases: biochemical
# off-target kinases [1] = biological target: T1, off-target kinases (Homo sapiens, UniProt Q6PHR2); details: ULK3, LanthaScreen Binding
# T1 sequence (Q6PHR2 1-472): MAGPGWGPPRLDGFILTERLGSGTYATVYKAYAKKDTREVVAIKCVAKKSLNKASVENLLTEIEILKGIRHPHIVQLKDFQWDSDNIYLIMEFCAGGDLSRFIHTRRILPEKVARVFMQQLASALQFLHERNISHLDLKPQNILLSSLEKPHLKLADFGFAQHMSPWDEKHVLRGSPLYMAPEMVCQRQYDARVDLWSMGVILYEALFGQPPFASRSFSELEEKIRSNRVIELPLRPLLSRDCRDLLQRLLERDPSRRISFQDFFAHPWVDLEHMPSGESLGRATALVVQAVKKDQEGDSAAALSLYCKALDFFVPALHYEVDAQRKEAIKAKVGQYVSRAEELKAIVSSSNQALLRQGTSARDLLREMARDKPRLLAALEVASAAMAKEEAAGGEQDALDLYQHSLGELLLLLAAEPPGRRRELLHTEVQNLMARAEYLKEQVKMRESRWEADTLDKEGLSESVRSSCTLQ
# off-target kinases [2] = biological target: off-target kinases (Homo sapiens, UniProt O75116); details: ROCK2, ZLYTE, ATP Km app
# Chain of off-target kinases (Homo sapiens, UniProt O75116) (O75116 whole entry): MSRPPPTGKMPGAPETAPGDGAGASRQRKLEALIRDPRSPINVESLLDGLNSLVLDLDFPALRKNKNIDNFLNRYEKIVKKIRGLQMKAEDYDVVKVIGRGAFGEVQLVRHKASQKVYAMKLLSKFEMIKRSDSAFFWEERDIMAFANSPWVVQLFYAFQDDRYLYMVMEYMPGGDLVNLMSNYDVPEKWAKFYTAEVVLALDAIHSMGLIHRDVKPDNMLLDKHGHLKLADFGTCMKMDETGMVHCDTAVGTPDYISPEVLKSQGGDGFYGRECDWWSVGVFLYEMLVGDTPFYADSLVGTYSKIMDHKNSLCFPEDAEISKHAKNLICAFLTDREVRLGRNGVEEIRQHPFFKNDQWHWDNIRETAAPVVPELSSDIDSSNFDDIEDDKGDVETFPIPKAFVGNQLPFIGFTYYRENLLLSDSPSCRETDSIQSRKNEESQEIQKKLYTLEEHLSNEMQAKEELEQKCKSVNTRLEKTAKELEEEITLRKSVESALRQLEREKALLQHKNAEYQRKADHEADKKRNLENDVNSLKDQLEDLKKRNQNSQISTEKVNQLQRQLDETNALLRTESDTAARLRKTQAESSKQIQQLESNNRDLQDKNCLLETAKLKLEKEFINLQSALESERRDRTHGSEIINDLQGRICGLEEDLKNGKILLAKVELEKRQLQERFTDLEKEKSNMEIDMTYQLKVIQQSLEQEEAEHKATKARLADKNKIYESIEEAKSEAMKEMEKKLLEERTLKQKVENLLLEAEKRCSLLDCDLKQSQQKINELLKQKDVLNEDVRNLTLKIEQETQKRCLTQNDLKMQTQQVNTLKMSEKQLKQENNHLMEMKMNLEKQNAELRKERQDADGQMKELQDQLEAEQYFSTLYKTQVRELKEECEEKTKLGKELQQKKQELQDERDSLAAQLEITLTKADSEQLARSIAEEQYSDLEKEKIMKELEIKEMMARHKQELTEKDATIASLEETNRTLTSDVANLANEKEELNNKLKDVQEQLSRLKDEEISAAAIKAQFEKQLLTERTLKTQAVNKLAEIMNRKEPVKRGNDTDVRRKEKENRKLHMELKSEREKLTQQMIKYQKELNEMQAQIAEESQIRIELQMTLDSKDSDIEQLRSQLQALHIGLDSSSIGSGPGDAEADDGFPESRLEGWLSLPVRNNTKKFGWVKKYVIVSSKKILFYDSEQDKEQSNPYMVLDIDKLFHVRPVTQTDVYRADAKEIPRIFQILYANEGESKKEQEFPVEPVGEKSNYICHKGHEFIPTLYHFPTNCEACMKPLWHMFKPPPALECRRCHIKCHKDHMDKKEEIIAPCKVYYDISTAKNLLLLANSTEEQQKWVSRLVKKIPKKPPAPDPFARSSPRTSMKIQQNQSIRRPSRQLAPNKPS
# off-target kinases [3] = biological target: off-target kinases (Homo sapiens, UniProt P15056, V600E); details: BRAF V599E
# Chain of off-target kinases (Homo sapiens, UniProt P15056, V600E) (P15056 whole entry V600E): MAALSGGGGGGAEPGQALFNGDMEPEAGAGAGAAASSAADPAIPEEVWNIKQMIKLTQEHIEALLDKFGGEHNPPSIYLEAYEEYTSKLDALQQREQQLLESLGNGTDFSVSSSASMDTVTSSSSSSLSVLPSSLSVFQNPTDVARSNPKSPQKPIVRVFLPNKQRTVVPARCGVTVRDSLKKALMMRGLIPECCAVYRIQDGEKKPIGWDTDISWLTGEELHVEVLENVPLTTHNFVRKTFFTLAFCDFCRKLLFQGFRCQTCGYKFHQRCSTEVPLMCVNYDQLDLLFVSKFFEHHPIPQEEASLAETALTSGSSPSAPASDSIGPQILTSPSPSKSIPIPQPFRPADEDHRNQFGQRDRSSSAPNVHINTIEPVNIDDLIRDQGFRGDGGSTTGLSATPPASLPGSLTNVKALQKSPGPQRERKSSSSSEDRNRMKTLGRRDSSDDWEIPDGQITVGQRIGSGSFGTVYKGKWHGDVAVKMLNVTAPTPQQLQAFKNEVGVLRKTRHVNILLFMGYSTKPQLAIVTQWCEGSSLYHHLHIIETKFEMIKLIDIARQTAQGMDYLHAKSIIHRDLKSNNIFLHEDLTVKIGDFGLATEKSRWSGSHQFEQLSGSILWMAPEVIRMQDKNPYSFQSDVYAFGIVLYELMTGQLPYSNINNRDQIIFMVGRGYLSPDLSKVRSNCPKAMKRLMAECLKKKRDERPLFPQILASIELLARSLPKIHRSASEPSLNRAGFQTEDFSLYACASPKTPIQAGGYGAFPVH
# off-target kinases [4] = biological target: off-target kinases (Homo sapiens, UniProt O60674, V617F); details: JAK2 JH1 JH2 V617F, ATP Km app, ZLYTE
# Chain of off-target kinases (Homo sapiens, UniProt O60674, V617F) (O60674 whole entry V617F): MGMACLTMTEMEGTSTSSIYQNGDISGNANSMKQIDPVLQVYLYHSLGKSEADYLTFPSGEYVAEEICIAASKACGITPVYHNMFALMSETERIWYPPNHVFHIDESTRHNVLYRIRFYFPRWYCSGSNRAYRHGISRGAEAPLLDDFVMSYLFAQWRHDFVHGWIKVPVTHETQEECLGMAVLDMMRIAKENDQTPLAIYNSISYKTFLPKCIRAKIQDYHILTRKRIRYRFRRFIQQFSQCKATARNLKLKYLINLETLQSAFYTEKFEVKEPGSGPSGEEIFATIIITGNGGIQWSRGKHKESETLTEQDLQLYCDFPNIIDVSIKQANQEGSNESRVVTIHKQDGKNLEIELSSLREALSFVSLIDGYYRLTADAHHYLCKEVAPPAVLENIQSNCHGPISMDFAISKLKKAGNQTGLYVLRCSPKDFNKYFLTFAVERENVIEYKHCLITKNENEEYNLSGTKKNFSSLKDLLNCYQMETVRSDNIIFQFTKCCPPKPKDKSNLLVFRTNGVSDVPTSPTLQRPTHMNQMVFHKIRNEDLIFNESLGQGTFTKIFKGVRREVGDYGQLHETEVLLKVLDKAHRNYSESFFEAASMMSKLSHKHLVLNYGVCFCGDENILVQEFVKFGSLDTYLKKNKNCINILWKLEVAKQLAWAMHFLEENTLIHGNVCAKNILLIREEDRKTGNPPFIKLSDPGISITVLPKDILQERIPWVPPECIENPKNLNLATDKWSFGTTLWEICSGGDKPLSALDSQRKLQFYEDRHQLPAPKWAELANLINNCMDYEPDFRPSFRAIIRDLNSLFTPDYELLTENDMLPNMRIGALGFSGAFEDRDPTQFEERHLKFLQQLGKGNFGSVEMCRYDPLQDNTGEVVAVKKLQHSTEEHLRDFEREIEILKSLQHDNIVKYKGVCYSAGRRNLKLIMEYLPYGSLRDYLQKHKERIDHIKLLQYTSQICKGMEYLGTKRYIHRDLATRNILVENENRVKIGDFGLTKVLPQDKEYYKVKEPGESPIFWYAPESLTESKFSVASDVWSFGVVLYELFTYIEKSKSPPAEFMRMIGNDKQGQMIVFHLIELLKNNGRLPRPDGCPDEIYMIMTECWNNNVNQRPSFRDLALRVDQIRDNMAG
# off-target kinases [5] = biological target: T2, off-target kinases (Homo sapiens, UniProt O60285); details: NUAK1 (ARK5), ATP Km app, Adapta
# T2 sequence (O60285 1-661): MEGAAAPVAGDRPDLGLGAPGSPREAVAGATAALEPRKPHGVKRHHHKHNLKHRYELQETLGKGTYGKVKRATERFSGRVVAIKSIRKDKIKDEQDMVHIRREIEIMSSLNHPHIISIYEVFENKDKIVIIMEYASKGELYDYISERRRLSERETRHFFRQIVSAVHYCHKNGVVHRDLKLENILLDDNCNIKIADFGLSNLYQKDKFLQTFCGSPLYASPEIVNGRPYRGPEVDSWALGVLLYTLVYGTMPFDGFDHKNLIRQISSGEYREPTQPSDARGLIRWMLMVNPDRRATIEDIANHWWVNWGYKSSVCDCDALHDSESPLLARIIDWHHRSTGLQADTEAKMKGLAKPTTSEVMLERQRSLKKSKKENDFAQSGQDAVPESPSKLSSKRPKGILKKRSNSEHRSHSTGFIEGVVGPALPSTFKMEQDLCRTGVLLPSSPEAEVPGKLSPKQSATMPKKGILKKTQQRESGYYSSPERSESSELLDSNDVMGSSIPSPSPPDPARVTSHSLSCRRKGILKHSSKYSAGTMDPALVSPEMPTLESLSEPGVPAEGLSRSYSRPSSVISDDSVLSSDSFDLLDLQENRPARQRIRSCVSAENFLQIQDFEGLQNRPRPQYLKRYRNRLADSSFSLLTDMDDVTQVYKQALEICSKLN
# off-target kinases [6] = biological target: off-target kinases (Homo sapiens, UniProt P09619); details: PDGFRB (PDGFR beta), ZLYTE, ATP Km app
# Chain of off-target kinases (Homo sapiens, UniProt P09619) (P09619 33-1106): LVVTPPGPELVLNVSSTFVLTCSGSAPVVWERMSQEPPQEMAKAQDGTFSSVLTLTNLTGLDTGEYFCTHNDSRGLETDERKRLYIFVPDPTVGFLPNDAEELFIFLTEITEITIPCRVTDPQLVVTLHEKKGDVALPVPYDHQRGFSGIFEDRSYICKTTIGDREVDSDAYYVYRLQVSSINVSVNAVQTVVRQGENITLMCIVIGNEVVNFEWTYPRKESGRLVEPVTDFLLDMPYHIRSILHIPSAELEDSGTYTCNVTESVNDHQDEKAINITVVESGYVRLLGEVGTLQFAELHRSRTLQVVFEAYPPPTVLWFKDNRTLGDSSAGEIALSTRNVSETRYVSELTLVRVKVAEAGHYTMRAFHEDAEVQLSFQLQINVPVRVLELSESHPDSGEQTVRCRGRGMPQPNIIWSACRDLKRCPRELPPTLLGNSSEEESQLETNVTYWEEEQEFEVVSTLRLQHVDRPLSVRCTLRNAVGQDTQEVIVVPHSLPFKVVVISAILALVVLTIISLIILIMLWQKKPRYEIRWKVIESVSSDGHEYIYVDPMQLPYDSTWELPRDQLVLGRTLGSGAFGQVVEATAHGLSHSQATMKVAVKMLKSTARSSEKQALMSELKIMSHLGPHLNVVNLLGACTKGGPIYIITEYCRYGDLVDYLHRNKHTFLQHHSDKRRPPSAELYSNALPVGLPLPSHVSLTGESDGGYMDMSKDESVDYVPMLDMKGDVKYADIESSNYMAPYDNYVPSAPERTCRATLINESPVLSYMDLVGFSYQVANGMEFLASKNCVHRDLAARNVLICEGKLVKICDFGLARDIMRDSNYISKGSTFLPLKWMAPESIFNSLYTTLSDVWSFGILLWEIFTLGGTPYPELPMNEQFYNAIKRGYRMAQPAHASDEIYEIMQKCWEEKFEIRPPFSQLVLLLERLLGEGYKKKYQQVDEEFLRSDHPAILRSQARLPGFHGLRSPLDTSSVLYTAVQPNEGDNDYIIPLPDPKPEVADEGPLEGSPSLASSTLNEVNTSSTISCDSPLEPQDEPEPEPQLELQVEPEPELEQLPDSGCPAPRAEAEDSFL
compound,measurement,setting,value
"N#Cc1cc(-c2ncnc(Nc3ccc(N4CCN(C5COC5)CC4)cc3)n2)ccc1OC1CCOCC1 [Compound 1, 5-(4-((4-(4-(oxetan-3-yl)piperazin-1-yl)phenyl)amino)-1,3,5-triazin-2-yl)-2-((tetrahydro-2H-pyran-4-yl)oxy)benzonitrile]",inhibition,off-target kinases [1]; read-out: % Inhibition 1,101%
same,inhibition,off-target kinases [1]; read-out: % Inhibition 2,104%
same,inhibition,off-target kinases [1]; read-out: % Inhibition Avg,102%
same,inhibition,off-target kinases [2]; read-out: % Inhibition 1,12%
same,inhibition,off-target kinases [2]; read-out: % Inhibition 2,14%
same,inhibition,off-target kinases [2]; read-out: % Inhibition Avg,13%
same,inhibition,"off-target kinases [3]; ATP 100, ZLYTE, read-out: % Inhibition 1",63%
same,inhibition,"off-target kinases [3]; ATP 100, ZLYTE, read-out: % Inhibition 2",61%
same,inhibition,"off-target kinases [3]; ATP 100, ZLYTE, read-out: % Inhibition Avg",62%
same,inhibition,"off-target kinases [3]; LanthaScreen Binding, read-out: % Inhibition 1",50%
same,inhibition,"off-target kinases [3]; LanthaScreen Binding, read-out: % Inhibition 2",53%
same,inhibition,"off-target kinases [3]; LanthaScreen Binding, read-out: % Inhibition Avg",52%
same,inhibition,off-target kinases [4]; read-out: % Inhibition 1,54%
same,inhibition,off-target kinases [4]; read-out: % Inhibition 2,50%
same,inhibition,off-target kinases [4]; read-out: % Inhibition Avg,52%
same,inhibition,off-target kinases [5]; read-out: % Inhibition 1,83%
same,inhibition,off-target kinases [5]; read-out: % Inhibition 2,83%
same,inhibition,off-target kinases [5]; read-out: % Inhibition Avg,83%
same,inhibition,off-target kinases [6]; read-out: % Inhibition 1,34%
same,inhibition,off-target kinases [6]; read-out: % Inhibition 2,30%
same,inhibition,off-target kinases [6]; read-out: % Inhibition Avg,32%

# Reference: patent US11572590B2, “Methods for evaluating tumor cell spheroids using 3D microfluidic cell culture device” (Dana-Farber Cancer Institute, Inc., priority 2017, dated 2023)
